Measured values from patent US20230141863A1, “Small Molecule Inhibitors Targeting the Sodium Channel Tamoxifen Receptor and Uses Thereof” (Northwestern University, priority 2021, published 2023).
“Also recorded” adds a separate entry of the source.

What was measured:
[1] = molecular target: Nav1.7 DII S969A and DIV D1761A (Homo sapiens, UniProt Q15858); test: Voltage clamp of Nav1.7 with alanine substitutions in DII and DIV; format: cell-based; conditions: range over DII S969A and DIV D1761A
Method: While no clear drug-receptor interactions were determined within Siteout, the S6 E220 side chains formed hydrogen bond interactions with the ether and amine moieties of the ND-Tam molecules found at Sitein. […] After structural alignment of the crystalized NavMs-Tam complex with the cryo EM Nav1.7+b1+b2 channel coordinates, the S6 side chain hydroxyl in DII (S969) and the carboxyl side chains in DIII (E1458) and DIV (D1761) observed in the human channel were nearly superimposable with E220 of the prokaryotic Nav subunits. In addition, the distances from the drug ether and amines were within acceptable distances (2.8-3.1 Å) for hydrogen bond formation for all three site chains (FIG. 2B). […]
Plasmids encoding the human version of channels Nav1.1, 1.6, and 1.7 were co-transfected with TRES GFP into HEK cell lines for whole-cell voltage clamp studies (American Type Culture Collection). […] Plasma membrane currents were recorded using borosilicate glass electrodes polished to resistances of […]. Sodium currents conducted by heterologously expressed Navs were recorded using the following solutions (in mM). […] Endogenous DRG sodium currents were recorded using an intracellular solution consisting of 70 CsCl, 70 CsF, 2 EGTA, 5 HEPES, and 5 NaCl; the pH was adjusted to 7.4 with CsOH. […]

[2] = system: mice with knee hyperalgesia post DMM surgery; test: In vivo osteoarthritis pain model (DMM), knee hyperalgesia after intra-articular injection; design: species or system mouse
estrogen receptor (ER) = molecular target: T1, estrogen receptor (ER) (Homo sapiens, UniProt P03372); conditions: reference 35; cited from earlier work
T1 sequence (P03372 1-595): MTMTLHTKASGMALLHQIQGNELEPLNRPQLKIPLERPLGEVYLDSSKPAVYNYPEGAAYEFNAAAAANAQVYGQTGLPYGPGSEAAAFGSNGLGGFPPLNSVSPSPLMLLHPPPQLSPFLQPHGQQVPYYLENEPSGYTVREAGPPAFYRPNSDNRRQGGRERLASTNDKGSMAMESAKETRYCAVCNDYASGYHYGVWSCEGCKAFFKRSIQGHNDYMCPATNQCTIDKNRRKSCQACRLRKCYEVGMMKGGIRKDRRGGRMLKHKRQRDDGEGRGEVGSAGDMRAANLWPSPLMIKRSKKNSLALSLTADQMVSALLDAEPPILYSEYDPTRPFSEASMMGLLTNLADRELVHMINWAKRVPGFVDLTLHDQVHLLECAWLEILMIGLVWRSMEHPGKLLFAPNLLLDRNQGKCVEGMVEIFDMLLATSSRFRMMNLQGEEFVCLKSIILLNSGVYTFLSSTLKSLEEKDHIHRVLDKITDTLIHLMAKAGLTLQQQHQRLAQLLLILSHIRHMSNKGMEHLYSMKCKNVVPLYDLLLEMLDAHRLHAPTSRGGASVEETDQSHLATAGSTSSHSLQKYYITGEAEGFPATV

Chain of Nav1.7 DII S969A and DIV D1761A (Q15858 whole entry S969A, form open): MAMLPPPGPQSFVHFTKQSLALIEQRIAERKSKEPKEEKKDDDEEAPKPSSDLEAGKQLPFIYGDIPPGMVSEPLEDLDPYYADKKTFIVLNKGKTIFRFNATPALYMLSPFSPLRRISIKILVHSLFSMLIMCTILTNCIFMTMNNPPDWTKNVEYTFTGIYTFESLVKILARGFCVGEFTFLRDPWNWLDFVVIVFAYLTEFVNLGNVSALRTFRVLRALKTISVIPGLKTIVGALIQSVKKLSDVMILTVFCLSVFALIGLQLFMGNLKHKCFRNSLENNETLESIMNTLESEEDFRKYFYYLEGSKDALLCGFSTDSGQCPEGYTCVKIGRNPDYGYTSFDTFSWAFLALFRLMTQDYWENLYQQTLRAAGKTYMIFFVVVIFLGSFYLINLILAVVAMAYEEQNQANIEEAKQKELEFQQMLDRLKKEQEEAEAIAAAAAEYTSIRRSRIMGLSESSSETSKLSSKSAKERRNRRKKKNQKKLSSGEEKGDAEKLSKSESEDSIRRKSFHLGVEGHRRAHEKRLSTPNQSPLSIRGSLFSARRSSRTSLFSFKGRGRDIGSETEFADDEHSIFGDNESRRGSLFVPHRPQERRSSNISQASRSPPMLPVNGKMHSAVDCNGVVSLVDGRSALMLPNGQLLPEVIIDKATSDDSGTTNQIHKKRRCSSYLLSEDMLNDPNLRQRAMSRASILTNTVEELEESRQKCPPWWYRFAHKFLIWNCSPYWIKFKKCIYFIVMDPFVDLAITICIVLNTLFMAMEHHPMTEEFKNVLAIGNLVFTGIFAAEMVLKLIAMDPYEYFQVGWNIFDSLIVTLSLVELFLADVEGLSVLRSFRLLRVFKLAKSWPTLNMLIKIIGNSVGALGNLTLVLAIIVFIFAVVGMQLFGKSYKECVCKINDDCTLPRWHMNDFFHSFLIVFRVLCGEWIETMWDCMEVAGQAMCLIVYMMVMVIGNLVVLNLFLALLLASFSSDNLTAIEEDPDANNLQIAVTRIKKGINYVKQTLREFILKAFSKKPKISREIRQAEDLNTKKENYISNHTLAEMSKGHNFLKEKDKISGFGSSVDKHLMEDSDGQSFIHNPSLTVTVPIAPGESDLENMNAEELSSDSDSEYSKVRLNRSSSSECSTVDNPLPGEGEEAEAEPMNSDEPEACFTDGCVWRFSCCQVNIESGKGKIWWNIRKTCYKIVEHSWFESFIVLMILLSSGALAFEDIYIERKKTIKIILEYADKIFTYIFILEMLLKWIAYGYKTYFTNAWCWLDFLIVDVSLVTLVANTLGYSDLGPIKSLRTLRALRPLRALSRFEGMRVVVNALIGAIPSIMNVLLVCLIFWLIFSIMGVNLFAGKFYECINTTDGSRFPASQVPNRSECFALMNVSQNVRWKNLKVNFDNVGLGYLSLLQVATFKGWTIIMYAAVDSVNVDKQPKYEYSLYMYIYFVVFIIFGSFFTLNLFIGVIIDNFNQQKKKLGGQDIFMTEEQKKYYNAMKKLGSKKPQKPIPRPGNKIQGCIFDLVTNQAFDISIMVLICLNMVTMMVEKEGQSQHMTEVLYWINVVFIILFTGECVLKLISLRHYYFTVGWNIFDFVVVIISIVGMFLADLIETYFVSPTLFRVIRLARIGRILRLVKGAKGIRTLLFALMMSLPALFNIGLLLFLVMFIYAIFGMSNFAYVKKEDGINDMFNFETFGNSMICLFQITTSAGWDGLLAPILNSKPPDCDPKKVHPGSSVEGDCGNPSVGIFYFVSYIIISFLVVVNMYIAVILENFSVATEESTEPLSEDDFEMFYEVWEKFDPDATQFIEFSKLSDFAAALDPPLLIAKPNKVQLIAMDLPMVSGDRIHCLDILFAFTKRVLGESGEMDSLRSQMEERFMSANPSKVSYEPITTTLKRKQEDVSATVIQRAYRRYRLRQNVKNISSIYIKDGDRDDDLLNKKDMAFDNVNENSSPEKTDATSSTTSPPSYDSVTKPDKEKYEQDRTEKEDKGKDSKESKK

CC/C(=C(\c1ccccc1)c1ccc(OCCNC)cc1)c1ccccc1 [ND-Tam, 2-[4-[(Z)-1,2-diphenylbut-1-enyl]phenoxy]-N-methylethanamine]
slope of concentration-dependence [1]: 1.3-1.4
knee hyperalgesia versus vehicle (in words) ([2]; 50 μM (~0.002 mg/kg) intra-articular, vehicle 50% EtOH, 30 minutes after injection, P=0.008): rapidly inhibited knee hyperalgesia pain compared to injection of vehicle; also recorded: provided relief from hyperalgesia compared to vehicle
area under the curve analysis of withdrawal thresholds (in words) ([2]; 50 μM intra-articular, 0-3 hours after injection): performs similar to CBD and to lidocaine over time
knee hyperalgesia versus vehicle, direct comparison study (in words) ([2]; 50 μM intra-articular, vehicle 0.1% DMSO, 30 minutes after injection): effectively inhibited knee hyperalgesia
knee withdrawal threshold versus vehicle control (in words) ([2]; 50 μM intra-articular, vehicle 0.1% DMSO, through 3 hours after injection): remained elevated compared to vehicle control through 3 hours after injection
affinity for the ER, times lower than 4OH-Tam (estrogen receptor (ER)): ~100 times
